From patent US6878736B1, “Histamine H3 receptor ligands” (James Black Foundation Limited, priority 1998, dated 2005)
Where a name gives a salt, the structure may show the parent alone.

biological target: T1, Histamine H3 receptor (Cavia porcellus, UniProt Q9JI35); test: Histamine H3 functional assay, guinea pig ileum (ileal longitudinal muscle, myenteric plexus); parameters: species or system tissue; conditions: antagonist affinity from rightward shift of R-(α)-methylhistamine E/[A] curves (Schild); typical variance ±0.15 log units; read-out: pKb (Guinea pig ileum) (converted)
Procedure: • 1. J. Med. Chem 1994, 314. • 2. WO 97/29092 Histamine H3 Functional Assay—Guinea Pig Ileum
The biological activity of the compounds of the examples was measured using the ileal longitudinal muscle, myenteric plexus assay described by Paton and Aboo Zar (J. Physiol. 1968, 194, 13-33). Male Dunkin-Hartley guinea pigs (250-300 g) were employed. Briefly, a 50 cm portion of ileum proximal to the caecum was removed, after discarding the terminal 20 cm. Ileal segments (3 cm) were cleaned by passing Krebs-Henseleit buffer containing 3 μM mepyramine gently through the ileum using a Pasteur pipette (size: 13.8 cm length, 0.65 cm diameter). To avoid unnecessary damage to the tissue, Krebs-Henseleit buffer was passed through the ileal segment, while it was lying horizontally on a petri dish. Therefore, the ileum was not over-distended and the buffer flowed through with ease. Each segment was then passed over a Pasteur pipette and the longitudinal muscle layer and adhering myenteric plexus was teased away using moist cotton wool, by stroking tangentially away from the mesenteric attachment. The tissues were suspended in 20 ml organ baths containing Krebs-Henseleit buffer at 37±1° C. and gassed with […]. The tissues were ligated to two parallel stainless steel wires, situated between two platinum electrodes (0.76 cm length, 0.06 cm diameter). All measurements were recorded isometrically (Grass FTO3 transducer). Following an initial loading tension of 1 g, the tissues were stimulated with electrical pulses at a frequency of 0.1 Hz and a pulse duration of 0.5 msec, as described by Kosterlitz & Watt (Br. J. Pharmacol. 1968, 266276). Initially, the tissues were stimulated at supramaximal (1.3 fold times maximal) voltage for a period of 30 min and then the tissues were washed and re-stimulated. A “sighter dose” of the selective histamine H3-receptor agonist, R-(α)-methylhistamine (0.3 μM) (Arrang et al. Nature, 1987, 117-123), was administered. Upon generation of response, the “sighter dose” was removed from the tissues by “washout” (6 washes over 60 min) and during this period the electrical stimulation was switched off. The tissues were then re-stimulated and allowed to stabilise prior to the addition of drug treatments, which were allocated on a randomised block basis to the organ baths. Following the incubation period, a single cumulative E/[A] curve was obtained. The experimental E/[A] curve data was expressed as the percentage inhibition of the peak height of electrically-stimulated contraction. Antagonist affinity values were calculated from the degree of rightward shift of the R-(α)-methylhistamine E/[A] curves using Schild's methods (Arunlakshana & Schild Br. J. Pharmacol. 1959, 48-58). Typical variance in this assay is ±0.15 log units.

T1 sequence (Q9JI35 whole entry): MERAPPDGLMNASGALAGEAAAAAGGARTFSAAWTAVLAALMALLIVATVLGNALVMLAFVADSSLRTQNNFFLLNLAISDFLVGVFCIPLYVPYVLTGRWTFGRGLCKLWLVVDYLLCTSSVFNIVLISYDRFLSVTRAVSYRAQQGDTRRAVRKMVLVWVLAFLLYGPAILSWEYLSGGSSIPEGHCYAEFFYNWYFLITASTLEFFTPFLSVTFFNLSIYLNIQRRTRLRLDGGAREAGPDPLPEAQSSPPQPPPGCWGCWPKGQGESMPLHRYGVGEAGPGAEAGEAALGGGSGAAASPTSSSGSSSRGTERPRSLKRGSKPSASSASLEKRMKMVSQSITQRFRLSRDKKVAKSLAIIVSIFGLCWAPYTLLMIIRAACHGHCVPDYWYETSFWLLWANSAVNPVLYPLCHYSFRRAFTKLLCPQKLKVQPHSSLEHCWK

Row | Kb | SMILES
1 | 794 nM | N=C(NCCCN1CCCC1)NCc1ccc(C(F)(F)F)cc1 [Example 5, N-(4-(Trifluoromethyl)benzyl)-N′-(3-pyrrolidin-1-yl-propyl)-guanidine bis-hydrochloride]

biological target: T1, Histamine H3 receptor; test: Histamine H3 radioligand binding assay, guinea pig cortex ([3H]-R-α-methylhistamine); conditions: guinea pig cortex membranes, competition with 1 nM [3H]-R-α-methylhistamine
Procedure: The compounds of the invention were also tested in a guinea pig cortex binding assay, as follows:
Histamine H3 Radioligand Binding Assay—Guinea Pig Cortex
Male Dunkin Hartley guinea pigs (200-300 g) were used. The whole brain was removed and immediately placed in ice-cold 20 mM Hepes-NaOH buffer (pH7.4 at 21±3° C.). The cortex was dissected, weighed and homogenised in ice-cold 20 mM Hepes-NaOH buffer (pH7.4 at 21±3° C.) (50 ml/guinea-pig cortex) using a polytron (Kinematica AG; PT-DA 3020/2TS, 3×3 s). The homogenate was centrifuged at 100×g for 5 min and the supernatants pooled and stored at 4° C. The pellets were rehomogenised in fresh ice-cold buffer (80 ml) and recentrifuged (100×g for 5 min). The supernatants were pooled and pellets rehomogenised and recentrifuged (100×g for 5 min). All supernatants were pooled and centrifuged at 39,800×g for 12 min at 4° C. The final pellet was resuspended in 20 mM Hepes-NaOH buffer (pH7.4 at 21±3° C.) to a tissue concentration of 7.5 mg.ml^−1, using a teflon-in-glass homogeniser.
Guinea pig cortex membranes (400 μl) were incubated for 165 min at 21±3° C. in a final volume of 500 μl with 20 mM Hepes-NaOH buffer containing [^3H]-R-α-methylhistamine (50 μl; 1 nM) and competing compound. Total and non-specific binding of [^3H]-R-α-methylhistamine were defined using 50 μl of buffer and 50 μl of 10 μM thioperamide, respectively. The assay was terminated by rapid filtration through Whatman GF/B filters, presoaked (2 hr) in 0.1% polyethyleneimine, using a Brandell Cell Harvester. The filters were washed (3×3 ml) with ice-cold 50 mM Tris-HCl (pH6.9 at 21±3° C.), transferred into scintillation vials, 5 ml liquid scintillation cocktail was added and after 4 hours the bound radioactivity was determined by counting (4 min) in a Beckman liquid scintillation counter.
Data are analysed using GraphPad prism and the general equation for a competition curve with variable Hill slope (nH). [formula] where • X is the log concentration of competing compound, • Y is the binding obtained at each concentration of X, • pIC50 is the concentration of the competitor required to compete for half of the specific binding.
The IC50 is converted to the K1 using the Cheng Prusoff equation, K1=IC50/(1+(L/KD)) where • IC50 is the concentration of competitor required to compete for half the specific binding, • L is the radioligand concentration used, • KD is the equilibrium dissociation constant for the radioligand determined by saturation experiments.

Row | SMILES | pKi (Guinea pig cortex)
2 | Cl.Cl.N=C(NCCCN1CCCC1)NCC1CCCCC1 [Example 39, N-Cyclohexyl-methyl-N′-(3-pyrrolidin-1-yl-propyl)-guanidine bis-hydrochloride] | 7.4

same assay, conditions: guinea pig cortex membranes, competition with 1 nM [3H]-R-α-methylhistamine; read-out: pKi (Guinea pig cortex) (converted)

Row | Ki | SMILES
3 | 316 nM | N=C(NCCc1ccc(Cl)cc1)NCCN1CCCC1 [Example 23, N-(2-(4-Chlorophenyl)ethyl)-N′-(2-pyrrolidin-1-yl-ethyl)-guanidine bis-hydrochloride]
4 | 3160 nM | CN(C)C(=O)CN(CCC[C@@H]1CCCN1C)S(=O)(=O)NCc1ccc(Cl)cc1 [Example 128, N-(4-Chlorobenzyl)-N′-(dimethylamidomethyl)-N′-(3-(1-methyl-pyrrolidin-2S-yl)propyl)-sulfamide]
5 | 2510 nM | CN1CCCC1CCNS(=O)(=O)c1cccc2ccccc12 (stereo not shown) [Example 94, N-(2-(1-Methyl-pyrrolidin-2-yl)-ethyl)-1-naphthalenesulfonamide]
6 | 1580 nM | CN1CCC[C@H]1CCCNS(=O)(=O)NCc1ccccc1 [Example 108, N-Benzyl-N′-(3-(1-methyl-pyrrolidin-2S-yl)-propyl)-sulfamide]
7 | 1000 nM | O=S(=O)(NCCN1CCCC1)NCc1ccc(Cl)cc1 [Example 134, N-(4-Chlorobenzyl)-N′-(2-pyrrolidin-1-yl-ethyl)-sulfamide]
8 | 158 nM | CN1CCCC1CCNC(=N)NCc1ccc(Cl)cc1 (stereo not shown) [Example 27, N-(4-Chlorobenzyl)-N′-(2-(1-methyl-pyrrolidin-2-yl)-ethyl)-guanidine bis-hydrochloride]
9 | 3160 nM | CN1CCC(CCCNS(=O)(=O)c2ccc3ccccc3c2)CC1 [Example 93, N-(3-(1-Methyl-piperidin-4-yl)-propyl)-2-naphthalenesulfonamide]
10 | 1580 nM | O=S(=O)(NCCC[C@@H]1CCCN1CCCc1ccc(Cl)cc1)NCc1ccc(Cl)cc1 [Example 118]
11 | 2000 nM | CN1CCCC(CCCNS(=O)(=O)c2ccc3ccccc3c2)C1 (stereo not shown) [Example 92, N-(3-(1-Methyl-piperidin-3-yl)-propyl)-2-naphthalenesulfonamide]
12 | 1260 nM | CN1CCC[C@H]1CCCN(CCO)S(=O)(=O)NCc1ccc(Cl)cc1 [Example 124, N-(4-Chlorobenzyl)-N′-(2-hydroxyethyl)-N′-(3-(1-methyl-pyrrolidin-2S-yl)propyl)-sulfamide]
13 | 251 nM | COC(=O)CN(CCC[C@@H]1CCCN1C)S(=O)(=O)NCc1ccc(Cl)cc1 [Example 123, N-(4-Chlorobenyl)-N′-(methoxycarbonylmethyl)-N′-(3-(1-methyl-pyrrolidin-2S-yl)propyl)-sulfamide]
14 | 20 nM | N=C(NCCCCCN1CCCC1)NCc1ccc(C2CCCCC2)cc1 [Example 57, N-(4-Cyclohexylbenzyl)-N′-(5-pyrrolidin-1-yl-pentyl)-guanidine bis-hydrochloride]
15 | 200 nM | CN1CCC[C@@H]1CCCNS(=O)(=O)NCc1ccc(Cl)cc1 [Example 109, N-(4-Chlorobenzyl)-N′-(3-(1-methyl-pyrrolidin-2R-yl)-propyl)-sulfamide]
16 | 79.4 nM | CN1CCCC1CCCCCNS(=O)(=O)NCc1ccc(Cl)cc1 (stereo not drawn) [Example 117, N-(4-Chlorobenzyl)-N′-(5-(1-methyl-pyrrolidin-2S-yl)-pentyl)-sulfamide]
17 | 794 nM | CN1CCC[C@H]1CCCN(CC(=O)NCc1ccc(Cl)cc1)S(=O)(=O)NCc1ccc(Cl)cc1 [Example 129, N-(4-Chlorobenzyl)-N′-(4-chlorobenzylamidomethyl)-N′-(3-(1-methyl-pyrrolidin-2S-yl)propyl)-sulfamide]
18 | 1260 nM | [O-][S+](NCCCN1CCCC1)c1ccc2ccccc2c1 (stereo not shown) [Example 87, N-(3-Pyrrolidin-1-yl-propyl)-2-naphthalenesulfinamide]
19 | 1580 nM | Cc1ccc(S(=O)(=O)NCCC2CCCN2C)cc1 (stereo not shown) [Example 95, N-(2-(1-Methyl-pyrrolidin-2-yl)ethyl)4-toluenesulfonamide]
20 | 794 nM | CC(C)CN1CCC[C@H]1CCCNS(=O)(=O)Cc1ccc(Cl)cc1 [Example 143]
21 | 158 nM | CN1CCN(CCCCNS(=O)(=O)c2ccc3ccccc3c2)CC1 [Example 85, N-(4-(4-Methyl-piperazin-1-yl)-butyl)-2-naphthalenesulfonamide]
22 | 1260 nM | CN1CCCCC1CCNS(=O)(=O)c1ccc2ccccc2c1 (stereo not shown) [Example 90, N-(2-(1-Methyl-piperidin-2-yl)-ethyl)-2-naphthalenesulfonamide]
23 | 1260 nM | CN1CCCC1CCCCS(=O)(=O)NCC12CC3CC(CC(C3)C1)C2 (stereo not drawn) [Example 138, N-Adamantan-1-yl-methyl-4-(1-methyl-pyrrolidin-2S-yl)-butanesulfonamide]
24 | 1580 nM | CN1CCC[C@H]1CCNS(=O)(=O)Cc1ccc(Cl)cc1 [Example 97, N-(2-(1-Methyl-pyrrolidin-2S-yl)-ethyl)-(4-chlorophenyl)-methanesulfonamide]
25 | 2510 nM | CN1CCCC1CCCCS(=O)(=O)NCC1CCCCC1 (stereo not drawn) [Example 137, N-Cyclohexyl-methyl-4-(1-methyl-pyrrolidin-2S-yl)-butanesulfonamide]
26 | 1000 nM | CN1CCC[C@H]1CCCN(CCCN)S(=O)(=O)NCc1ccc(Cl)cc1 [Example 126, N-(4-Chlorobenzyl)-N′-(3-amino-propyl)-N′-(3-(1-methyl-pyrrolidin-2S-yl)propyl)-sulfamide]
27 | 5010 nM | CN1CCC[C@H]1CCCN(CC(=O)OCc1ccccc1)S(=O)(=O)NCc1ccc(Cl)cc1 [Example 130, N-(4-Chlorobenzyl)-N′-(benyloxycarbonylmethyl)-N′-(3-(1-methyl-pyrrolidin-2S-yl)propyl)-sulfamide]
28 | 1580 nM | CN1CCC[C@H]1CCCNS(=O)(=O)NCCc1ccc(Cl)cc1 [Example 111, N-(2-(4-Chlorophenyl)-ethyl)-N′-(3-(1-methyl-pyrrolidin-2S-yl)-propyl)-sulfamide]
29 | 2510 nM | CN(CCN1CCCC1)S(=O)(=O)c1ccc2ccccc2c1 [Example 86, N-(2-Pyrrolidin-1-yl-ethyl)-N-methyl-2-naphthalenesulfonamide]
30 | 794 nM | N=C(NCCCN1CCOCC1)NCc1ccc(Cl)cc1 [Example 15, N-(4-Chlorobenzyl)-N′-(3-morpholin-4-yl-propyl)-guanidine bis-hydrochloride]
31 | 1580 nM | CN1CCCC1CCNS(=O)(=O)c1ccc(Cl)cc1 (stereo not shown) [Example 96, N-(2-(1-Methyl-pyrrolidin-2-yl)-ethyl)-4-chlorophenylsulfonamide]
